Where two headings read alike, the source gives them in different places. Some results are limits rather than exact numbers.

The target in assay [1] is T1, baculovirus-expressed ALK (Homo sapiens, UniProt Q9UM73).
T1 construct: host or cells: baculovirus expression system
The assay is described as follows: ALK Kinase Assay (ELISA-type, time-resolved fluorescence). It is filed as biochemical. The conditions noted are these: 1 μM ATP (Km level). A digest of the protocol:
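Wells were coated with phospholipase C-γ at 10 μg/mL in Tris-buffered saline. Adding 30 ng/ml enzyme started the reaction, which ran at 37° C for 15 minutes before Eu-N1 PT66 antibody detection. Percent inhibition versus log10 concentration gave IC50 by variable-slope fit.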

In assay [2] the target is T2, c-Met (cytoplasmic domain) (Homo sapiens, UniProt P08581).
T2 construct: 10 ng/mL c-Met (cytoplasmic domain, Invitrogen Corporation #PV3143); purchased Invitrogen Corporation PV3143
T2 sequence (P08581 956-1390 limits assumed): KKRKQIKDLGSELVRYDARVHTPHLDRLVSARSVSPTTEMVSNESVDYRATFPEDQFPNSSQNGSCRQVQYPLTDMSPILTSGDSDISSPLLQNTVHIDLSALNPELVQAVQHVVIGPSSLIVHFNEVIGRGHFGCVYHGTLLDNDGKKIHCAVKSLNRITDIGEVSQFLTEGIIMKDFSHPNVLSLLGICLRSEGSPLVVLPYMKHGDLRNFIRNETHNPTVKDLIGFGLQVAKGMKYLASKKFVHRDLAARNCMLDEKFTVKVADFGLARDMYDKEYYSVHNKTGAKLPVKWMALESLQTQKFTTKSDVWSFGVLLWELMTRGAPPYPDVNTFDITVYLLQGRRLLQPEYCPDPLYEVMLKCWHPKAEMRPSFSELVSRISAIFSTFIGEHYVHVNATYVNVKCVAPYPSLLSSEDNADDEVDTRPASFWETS
The assay is described as follows: c-Met Kinase Assay (same methods as for ALK, with modifications). It is filed as biochemical. Conditions: 1 μM ATP (Km level). A digest of the protocol: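 Steps: coat wells with PLC-γ (10 μg/mL, Tris-buffered saline); add 10 ng/mL c-Met cytoplasmic domain to initiate; incubate 15 min, 37° C; detect phosphoproduct via Eu-N1 PT66 antibody.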

The mark [3] stands for this setting: 30 ng/ml ALK, 37° C., 15 minutes, read-out: ALK Activity (ALK kinase inhibition, IC50 class).
The mark [4] stands for this setting: 10 ng/mL c-Met, read-out: cMet Activity (c-Met kinase inhibition, IC50 class).
Where [5] appears, read: read-out: ALK Activity (ALK Kinase Inhibition, IC50).
Where [6] appears, read: read-out: cMet Activity (c-Met Kinase Inhibition, IC50).
Setting [7] is: ALK kinase inhibition, read-out: ALK Activity.
Where [8] appears, read: c-Met kinase inhibition, read-out: cMet Activity.

T1 sequence (Q9UM73 19-1620): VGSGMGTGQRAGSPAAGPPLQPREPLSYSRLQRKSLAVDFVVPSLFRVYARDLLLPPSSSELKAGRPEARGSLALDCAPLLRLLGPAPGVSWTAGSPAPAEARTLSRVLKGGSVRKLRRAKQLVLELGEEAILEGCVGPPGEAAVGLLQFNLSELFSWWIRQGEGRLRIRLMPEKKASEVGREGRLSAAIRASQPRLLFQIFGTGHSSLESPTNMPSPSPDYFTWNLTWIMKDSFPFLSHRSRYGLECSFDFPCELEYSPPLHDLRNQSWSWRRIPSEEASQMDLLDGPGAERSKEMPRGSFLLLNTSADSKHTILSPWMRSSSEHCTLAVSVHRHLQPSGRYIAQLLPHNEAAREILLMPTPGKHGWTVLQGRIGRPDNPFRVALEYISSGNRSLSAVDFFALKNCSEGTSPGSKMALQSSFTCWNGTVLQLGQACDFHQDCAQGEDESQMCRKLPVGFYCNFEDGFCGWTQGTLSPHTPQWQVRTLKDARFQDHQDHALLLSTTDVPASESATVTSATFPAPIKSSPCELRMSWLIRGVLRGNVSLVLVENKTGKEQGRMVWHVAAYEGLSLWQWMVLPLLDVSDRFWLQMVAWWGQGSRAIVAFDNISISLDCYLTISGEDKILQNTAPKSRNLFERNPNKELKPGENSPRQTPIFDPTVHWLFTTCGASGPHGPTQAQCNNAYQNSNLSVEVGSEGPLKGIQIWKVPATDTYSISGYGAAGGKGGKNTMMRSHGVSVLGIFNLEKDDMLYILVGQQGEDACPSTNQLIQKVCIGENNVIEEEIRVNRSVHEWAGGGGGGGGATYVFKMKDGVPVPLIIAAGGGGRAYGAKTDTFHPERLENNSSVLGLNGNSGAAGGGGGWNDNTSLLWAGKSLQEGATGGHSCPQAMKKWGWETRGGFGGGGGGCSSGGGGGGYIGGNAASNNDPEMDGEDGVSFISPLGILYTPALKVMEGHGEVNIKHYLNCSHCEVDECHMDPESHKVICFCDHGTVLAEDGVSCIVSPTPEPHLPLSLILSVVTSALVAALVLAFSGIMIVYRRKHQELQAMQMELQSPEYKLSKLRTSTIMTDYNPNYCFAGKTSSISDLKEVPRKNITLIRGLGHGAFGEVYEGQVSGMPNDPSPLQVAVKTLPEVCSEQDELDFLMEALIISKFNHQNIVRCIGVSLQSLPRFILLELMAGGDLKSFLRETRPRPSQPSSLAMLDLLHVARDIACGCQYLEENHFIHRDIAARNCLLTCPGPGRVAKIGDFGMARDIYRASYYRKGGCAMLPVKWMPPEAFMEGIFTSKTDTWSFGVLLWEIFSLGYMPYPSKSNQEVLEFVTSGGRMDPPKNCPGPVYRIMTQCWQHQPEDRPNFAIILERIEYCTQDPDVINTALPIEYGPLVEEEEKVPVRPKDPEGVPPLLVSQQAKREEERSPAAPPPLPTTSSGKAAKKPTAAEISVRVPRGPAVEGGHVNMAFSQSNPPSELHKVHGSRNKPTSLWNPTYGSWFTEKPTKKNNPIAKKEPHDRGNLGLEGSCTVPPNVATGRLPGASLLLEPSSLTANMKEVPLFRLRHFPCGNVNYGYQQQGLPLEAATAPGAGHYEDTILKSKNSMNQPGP

On to `C#CCNC(=O)c1sccc1Nc1nc(Nc2ccc3c(c2)OCCCN3C(=O)OCCCN(C)C)ncc1Cl` [Example 1429, 3-[5-Chloro-4-(2-prop-2-ynylcarbamoyl-thiophen-3-ylamino)-pyrimidin-2-ylamino]-7,8-dihydro-6H-5-oxa-9-aza-benzocycloheptene-9-carboxylic acid 3-dimethylamino-propyl ester], for which the IC50 in assay [1] (setting [3]) and in assay [2] (setting [4]) was 100 to 1000 nM in each case.
Turning to `CCN(CCO)Cc1cc(Nc2nc(Nc3ccc4c(c3)N(CC)CCN(CC)C4)ncc2Cl)ccc1F` [Example 734, 2-({5-[5-Chloro-2-(1,4-diethyl-2,3,4,5-tetrahydro-1H-benzo[e][1,4]diazepin-8-ylamino)-pyrimidin-4-ylamino]-2-fluoro-benzyl}-ethyl-amino)-ethanol], the IC50 is below 100 nM in assay [1] (setting [5]) and above 10000 nM in assay [2] (setting [6]).
As to `C#CCNC(=O)c1cccc(F)c1Nc1nc(Nc2ccc3c(c2)NC(=O)C(N)CC3(C)C)ncc1Cl` (stereo not drawn) [Example 1280, 2-[2-(3-Amino-5,5-dimethyl-2-oxo-2,3,4,5-tetrahydro-1H-1-benzazepin-8-ylamino)-5-chloro-pyrimidin-4-ylamino]-3-fluoro-N-prop-2-ynyl-benzamide], the IC50 in assay [1] (setting [3]) and in assay [2] (setting [4]) was below 100 nM throughout.
With `CN1CCN(C)c2c(Nc3ncc(Cl)c(N[C@@H]4CCCC[C@H]4NS(C)(=O)=O)n3)cccc2C1=O` [Example 542, N-{(1R,2R)-2-[5-Chloro-2-(1,4-dimethyl-5-oxo-2,3,4,5-tetrahydro-1H-benzo[e][1,4]diazepin-9-ylamino)-pyrimidin-4-ylamino]-cyclohexyl} methanesulfonamide], the IC50 in assay [1] (setting [5]) is below 100 nM; in assay [2] (setting [6]), above 10000 nM.
In the same order, the values of `COCCN1CCc2ccc(Nc3ncc(Cl)c(Nc4ccc(N(C)C)cc4S(=O)(=O)N(C)C)n3)cc2CC1` [Example 852, 2-{5-Chloro-2-[3-(2-methoxy-ethyl)-2,3,4,5-tetrahydro-1H-benzo[d]azepin-7-ylamino]-pyrimidin-4-ylamino}-5-dimethylamino-N,N-dimethyl-benzenesulfonamide] are below 100 nM and 1000 to 10000 nM.
For the molecule `COc1cc2c(cc1Nc1ncc(Cl)c(N[C@H]3[C@@H](C(N)=O)[C@@H]4C=C[C@H]3C4)n1)N(C)C(=O)CN(CC#N)C2` [Example 744, (1S,2S,3R,4R)-3 [5-Chloro-2-(4-cyanomethyl-7-methoxy-1-methyl-2-oxo-2,3,4,5-tetrahydro-1H-benzo[e][1,4]diazepin-8-ylamino)-pyrimidin-4-ylamino]-bicyclo(2.2.1)hept-5-ene-2-carboxylic acid amide], the figures for the IC50 in assay [1] (setting [5]) and in assay [2] (setting [6]) were 100 to 1000 nM and above 10000 nM, respectively.
Consider `COC(CN1CCc2ccc(Nc3ncc(Cl)c(NC4C5C=CC(C5)C4C(N)=O)n3)cc2CC1)C(F)(F)F` (mixture of isomers) [Example 338, (2-exo, 3-exo)-3-{5-Chloro-2-[3-((S)-3,3,3-trifluoro-2-methoxy-propyl)-2,3,4,5-tetrahydro-1H-benzo[d]azepin-7-ylamino]-pyrimidin-4-ylamino}-bicyclo[2.2.1]hept-5-ene-2-carboxylic acid amide], for which the values for the IC50 in assay [1] (setting [7]) and in assay [2] (setting [8]) were below 100 nM and 100 to 1000 nM, respectively.
In the case of `CCN(CCO)Cc1cc(Nc2nc(Nc3ccc4c(c3OC)CCC(N3CCOCC3)CC4)ncc2Cl)ccc1F` (stereo not drawn) [Example 740, 2-([5-[5-Chloro-2-(1-methoxy-7-morpholin-4-yl-6,7,8,9-tetrahydro-5H-benzocyclohepten-2-ylamino)-pyrimidin-4-ylamino]-2-fluoro-benzyl}-ethylamino)-ethanol], the IC50 in assay [1] (setting [5]) was below 100 nM; in assay [2] (setting [6]), above 10000 nM.
Turning to `CNS(=O)(=O)c1ccccc1Nc1nc(Nc2ccc3c(c2)C2CC3CN(C(C)C)C2)ncc1Cl` (stereo not drawn) [Example 159, 2-[5-Chloro-2-(10-isopropyl-10-aza-tricyclo[6.3.1.0*2,7*]dodeca-2,4,6-trien-4-ylamino)-pyrimidin-4-ylamino]-N-methyl-benzenesulfonamide], the values for the IC50 in assay [1] (setting [7]) and in assay [2] (setting [8]) were below 100 nM and 100 to 1000 nM, respectively.

Source of the values: patent publication US8148391B2 (Cephalon, Inc., priority 2006, dated 2012).
